# Biological target: E3 ubiquitin-protein ligase Mdm2 (Homo sapiens, UniProt Q00987)
# Sequence (Q00987 whole entry): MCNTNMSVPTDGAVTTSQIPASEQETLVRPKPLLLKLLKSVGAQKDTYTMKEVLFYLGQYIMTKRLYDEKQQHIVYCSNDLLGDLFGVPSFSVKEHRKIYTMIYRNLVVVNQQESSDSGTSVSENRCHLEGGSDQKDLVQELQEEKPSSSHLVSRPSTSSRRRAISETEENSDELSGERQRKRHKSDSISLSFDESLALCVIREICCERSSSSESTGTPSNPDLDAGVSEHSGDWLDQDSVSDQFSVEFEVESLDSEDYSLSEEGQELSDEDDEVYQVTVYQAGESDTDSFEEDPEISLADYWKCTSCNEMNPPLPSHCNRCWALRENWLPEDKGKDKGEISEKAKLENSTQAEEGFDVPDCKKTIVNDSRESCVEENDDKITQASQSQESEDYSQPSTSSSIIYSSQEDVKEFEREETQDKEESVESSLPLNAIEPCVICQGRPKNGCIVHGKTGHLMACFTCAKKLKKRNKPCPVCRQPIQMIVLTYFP
row,Compound,Ki
1,CCOC(=O)c1[nH]c2cc(Cl)ccc2c1C1C(=O)NCCCCCCCCCCCCCCCCCCCC(=O)N1Cc1ccc(OCc2ccc(Cl)c(Cl)c2)cc1 (stereo not drawn),Not Active
2,O=C(O)c1[nH]c2cc(Cl)ccc2c1C1C(=O)NCCCCCCCCCCCCCC(=O)N1Cc1ccc(F)cc1 (stereo not drawn),Not Active
3,O=C(O)c1[nH]c2cc(Cl)ccc2c1C1C(=O)NCCCCCCCCCCCCCC(=O)N1Cc1ccc(Cl)cc1 (stereo not drawn),Not Active
